From patent US5874446A, “Benzopyran derivatives” (Chugai Seiyaku Kabushiki Kaisha, priority 1992, dated 1999) come the findings set out here.

SMILES strings stand for the structures.

Assay [1] deals with Guinea Pig Tracheal Muscle. Kind of assay: Test with Guinea Pig Tracheal Muscle: relaxing activity on spontaneous tension. Type of assay: cell-based, male Hartley guinea pig. Conditions: Cavia porcellus; 50% relaxing activity; 1 mM aminophylline on spontaneous tension taken as 100%; Krebs-Henseleit, 37° C. The procedure: Test with Guinea Pig Tracheal Muscle
The trachea was excised from a male Hartley guinea pig (450 to 550 g) to make chain preparations. The preparation was suspended in a bath containing the abovementioned Krebs-henseleit solution (37° C.) through which a mixed gas of 95% O2 and 5% CO2 was bubbled. Contraction reactions of the preparation were isometrically recorded under a tension of 1 g.
The same test compound as used in Text Example 1 were used.

Assay [2] relates to Excised Aorta of Rat (thoracic aorta ring preparations). Kind of assay: Test with Excised Aorta of Rat: relaxation of lasting contraction by KCl. As to conditions: 50% inhibitory concentration, relaxation of 30 mM KCl contraction, Krebs-Henseleit, 37° C. Type of assay: cell-based, male Sprague Dawley rat. The procedure: Test with Excised Aorta of Rat
The thoracic aorta was excised from a male Sprague Dawley rat (450 to 600 g) and cut into 2 mm wide ring preparations. Each preparation was suspended in 10 ml of an Organ bath containing a Krebs-Henseleit solution (NaCl:119; KCl:4.8; CaCl2.2H2 O:2.53; KH2 PO4 :1.2; MgSO4.7H2 O:1.2; NaHCO3 :24.8; glucose:10(mM); 37° C.) under a tension of 2 g, and a mixed gas of 95% O2 and 5% CO2 was bubbled therethrough. Contraction reactions of the preparation were isometrically recorded by means of an FD pick-up. […] The activity of a test compound to relax a lasting contraction by the addition of KCl was evaluated by obtaining a 50% inhibitory concentration (IC50)
The compounds of the present invention obtained in the foregoing Examples and Cromakalim was used as test compound for comparison.

By IC50 is commonly meant the concentration that gives 50% inhibition. A high value points to a need for much substance. Take `O=c1ccccn1C1=CC(CF)(CF)Oc2ccc([N+](=O)[O-])cc21` [Compound 12, 2,2-Bisfluoromethyl-6-nitro-4-(1,2-dihydro-2-oxo-1-pyridyl)-2H-1-benzopyran]: the IC50 worked out at 5.9 nM in assay [1] and 2.5 nM in assay [2].

As for `N#C[N-][n+]1ccccc1C1=CC(CF)(CF)Oc2ccc([N+](=O)[O-])cc21` [Compound 52, 2-(2,2-Bisfluoromethyl-6-nitro-2H-1-benzopyran-4-yl)pyridine N-cyanoimine], the 50% inhibitory concentration (IC50) in assay [1] was 12 nM; in assay [2] it was 2 nM. The corresponding values for `[O-][n+]1ccccc1C1=CC(CF)(CF)Oc2ccc(C(F)(F)C(F)(F)F)cc21` [Compound 48, 2-(6-Pentafluoroethyl-2,2-bisfluoromethyl-2H-1-benzopyran-4-yl)pyridine N-oxide] are 3.9 nM and 1.6 nM.

On to `N#C[N-][n+]1ccccc1C1=CC(CF)(CF)Oc2ccc(C(F)(F)C(F)(F)F)cc21` [Compound 55, 2-(6-Pentafluoroethyl-2,2-bisfluoromethyl-2H-1-benzopyran-4-yl)pyridine N-cyanoimine], for which the IC50 in assay [1] was 6.3 nM; in assay [2], 0.82 nM.

For the molecule `N#Cc1ccc2c(c1)[C@@H](N1CCCC1=O)[C@H](O)C(CF)(CF)O2` (relative stereo) [Compound 2-2, Trans-6-cyano-2,2-bisfluoromethyl-3,4-dihydro-4-(2-oxo-1-pyrrolidinyl)-2H-1-benzopyran-3-ol], the IC50 in assay [1] was found to be 390 nM; in assay [2], 74 nM. The like results for `CC1(C)Oc2ccc(C#N)cc2[C@@H](N2CCCC2=O)[C@@H]1O` (relative stereo) [Cromakalim, reference compound] were, in that order, 860 nM and 170 nM. The like results for `O=C1CCCCN1[C@@H]1c2cc([N+](=O)[O-])ccc2OC(CF)(CF)[C@H]1O` (relative stereo) [Compound 6-2, Trans-2,2-bisfluoromethyl-3,4-dihydro-6-nitro-4-(2-oxo-1-piperidinyl)-2H-1-benzopyran-3-ol] were, in that order, 6.8 nM and 2.6 nM. Regarding `[O-][n+]1ccccc1C1=CC(CF)(CF)Oc2ccc(C(F)(F)F)cc21` [Compound 50, 2-(2,2-Bisfluoromethyl-6-trifluoromethyl-2H-1-benzopyran-4-yl)pyridine N-oxide], the IC50 in assay [1] came out at 18 nM. As to `O=C1CCCCN1[C@@H]1c2cc(C(F)(F)C(F)(F)F)ccc2OC(CF)(CF)[C@H]1O` (relative stereo) [Compound 4-2, Trans-6-pentafluoroethyl-2,2-bisfluoromethyl-3,4-dihydro-4-(2-oxo-1-piperidinyl)-2H-1-benzopyran-3-ol], the IC50 is 6.9 nM in assay [1] and 0.28 nM in assay [2].
